What was measured:
[1] = target: T1, human V2 receptor (Homo sapiens, UniProt P30518); experiment: Cellular in vitro assay for determining vasopressin receptor activity, V2 receptor cell line (CHO, CRE-luciferase); type: cell-based; details: CHO cell line transfected with human V2 receptor; [Arg8]-vasopressin at EC50 concentration; read-out: IC50 hV2
T1 construct: expressed in transfected cells; host or cells: CHO K1 (ATCC) expressing firefly luciferase under a CRE-responsive promoter

[2] = target: T2, human V1a receptor (Homo sapiens, UniProt P37288); experiment: Cellular in vitro assay for determining vasopressin receptor activity, V1a receptor cell line (CHO, aequorin luminescence); type: cell-based; details: for IC50: CHO cell line transfected with human V1a receptor, [Arg]-vasopressin at EC50 concentration, read-out: IC50 hV1a; for ratio IC50 hV2/hV1a: selectivity ratio IC50 hV2 / IC50 hV1a
T2 construct: expressed in transfected cells; host or cells: CHO K1 (ATCC), also stably transfected with a modified aequorin
T2 sequence (P37288 whole entry): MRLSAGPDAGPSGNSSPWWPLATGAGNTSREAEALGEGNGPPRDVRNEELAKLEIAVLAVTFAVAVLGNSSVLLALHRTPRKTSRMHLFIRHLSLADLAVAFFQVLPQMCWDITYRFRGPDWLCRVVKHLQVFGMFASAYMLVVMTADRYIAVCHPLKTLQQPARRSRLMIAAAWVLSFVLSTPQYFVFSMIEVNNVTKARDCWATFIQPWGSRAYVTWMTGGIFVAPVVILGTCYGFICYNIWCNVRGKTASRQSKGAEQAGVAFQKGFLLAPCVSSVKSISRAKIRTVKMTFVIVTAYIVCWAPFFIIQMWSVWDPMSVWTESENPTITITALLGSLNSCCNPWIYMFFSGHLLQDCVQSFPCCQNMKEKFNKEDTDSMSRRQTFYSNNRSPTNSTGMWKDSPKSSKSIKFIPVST
How it was run: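 Cells were plated the day before in medium containing 5 μg/ml coelenterazine and kept at 37° C. Compounds at various concentrations were then added for 10 minutes. Next, [Arg]-vasopressin at EC50 was applied and light output recorded at once, yielding IC50.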

T1 sequence (P30518 whole entry): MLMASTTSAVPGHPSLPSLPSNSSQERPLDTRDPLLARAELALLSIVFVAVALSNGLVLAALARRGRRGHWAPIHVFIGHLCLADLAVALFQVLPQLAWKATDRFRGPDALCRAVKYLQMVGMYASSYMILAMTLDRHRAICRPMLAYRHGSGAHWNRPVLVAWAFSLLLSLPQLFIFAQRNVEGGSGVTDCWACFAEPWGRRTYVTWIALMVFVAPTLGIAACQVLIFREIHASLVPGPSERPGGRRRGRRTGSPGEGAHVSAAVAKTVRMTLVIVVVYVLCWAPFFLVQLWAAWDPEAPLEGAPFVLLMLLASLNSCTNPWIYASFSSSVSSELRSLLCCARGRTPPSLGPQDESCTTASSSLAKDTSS

Row | SMILES | IC50 [1] [nM] | IC50 [2] [nM] | ratio IC50 hV2/hV1a [2]
1 | CNC(=O)c1cccnc1-n1cnc(Cn2nc(-c3ccc(Cl)cc3)n(C[C@H](O)C(F)(F)F)c2=O)n1 [Example 495, 2-[3-({3-(4-chlorophenyl)-5-oxo-4-[(2S)-3,3,3-trifluoro-2-hydroxypropyl]-4,5-dihydro-1H-1,2,4-triazol-1-yl}methyl)-1H-1,2,4-triazol-1-yl]-N-methylpyridine-3-carboxamide] | 520 | 20 | 26.0
2 | O=C(NC1CC1)c1cccnc1-n1cnc(Cn2nc(-c3ccc(Cl)cc3)n(C[C@H](O)C(F)(F)F)c2=O)n1 [Example 496, 2-[3-({3-(4-chlorophenyl)-5-oxo-4-[(2S)-3,3,3-trifluoro-2-hydroxypropyl]-4,5-dihydro-1H-1,2,4-triazol-1-yl}methyl)-1H-1,2,4-triazol-1-yl]-N-cyclopropylpyridine-3-carboxamide] | 170 | 7.2 | 23.6
3 | O=C(NCCC(F)(F)F)c1cccnc1-n1cnc(Cn2nc(-c3ccc(Cl)cc3)n(C[C@H](O)C(F)(F)F)c2=O)n1 [Example 497, 2-[3-({3-(4-chlorophenyl)-5-oxo-4-[(2S)-3,3,3-trifluoro-2-hydroxypropyl]-4,5-dihydro-1H-1,2,4-triazol-1-yl}methyl)-1H-1,2,4-triazol-1-yl]-N-(3,3,3-trifluoropropyl)pyridine-3-carboxamide] | 490 | 26.5 | 18.5
4 | O=C(NC1CC(F)(F)C1)c1cccnc1-n1cnc(Cn2nc(-c3ccc(Cl)cc3)n(C[C@H](O)C(F)(F)F)c2=O)n1 [Example 498, 2-[3-({3-(4-Chlorophenyl)-5-oxo-4-[(2S)-3,3,3-trifluoro-2-hydroxypropyl]-4,5-dihydro-1H-1,2,4-triazol-1-yl}methyl)-1H-1,2,4-triazol-1-yl]-N-(3,3-difluorocyclobutyl)pyridine-3-carboxamide] | 470 | 10.5 | 44.8
5 | O=C(NCC1CC1)c1cccnc1-n1cnc(Cn2nc(-c3ccc(Cl)cc3)n(C[C@H](O)C(F)(F)F)c2=O)n1 [Example 499, 2-[3-({3-(4-Chlorophenyl)-5-oxo-4-[(2S)-3,3,3-trifluoro-2-hydroxypropyl]-4,5-dihydro-1H-1,2,4-triazol-1-yl}methyl)-1H-1,2,4-triazol-1-yl]-N-(cyclopropylmethyl)pyridine-3-carboxamide] | 505 | 15 | 33.7
6 | O=C(NC1CC1(F)F)c1cccnc1-n1cnc(Cn2nc(-c3ccc(Cl)cc3)n(C[C@H](O)C(F)(F)F)c2=O)n1 (stereo partly drawn) [Example 500, 2-[3-({3-(4-Chlorophenyl)-5-oxo-4-[(2S)-3,3,3-trifluoro-2-hydroxypropyl]-4,5-dihydro-1H-1,2,4-triazol-1-yl}methyl)-1H-1,2,4-triazol-1-yl]-N-(2,2-difluorocyclopropyl)pyridine-3-carboxamide] | 305 | 6.8 | 44.9
7 | COC[C@H]1CCCN1C(=O)c1cccnc1-n1cnc(Cn2nc(-c3ccc(Cl)cc3)n(C[C@H](O)C(F)(F)F)c2=O)n1 [Example 501, 5-(4-Chlorophenyl)-2-{[1-(3-{[(2R)-2-(methoxymethyl)pyrrolidin-1-yl]carbonyl}pyridin-2-yl)-1H-1,2,4-triazol-3-yl]methyl}-4-[(2S)-3,3,3-trifluoro-2-hydroxypropyl]-2,4-dihydro-3H-1,2,4-triazol-3-one] | 530 | 30.5 | 17.4
8 | COC[C@@H]1CCCN1C(=O)c1cccnc1-n1cnc(Cn2nc(-c3ccc(Cl)cc3)n(C[C@H](O)C(F)(F)F)c2=O)n1 [Example 502, 5-(4-Chlorophenyl)-2-{[1-(3-{[(2S)-2-(methoxymethyl)pyrrolidin-1-yl]carbonyl}pyridin-2-yl)-1H-1,2,4-triazol-3-yl]methyl}-4-[(2S)-3,3,3-trifluoro-2-hydroxypropyl]-2,4-dihydro-3H-1,2,4-triazol-3-one] | 2000 | 29.5 | 67.8
9 | CC1(NC(=O)c2cccnc2-n2cnc(Cn3nc(-c4ccc(Cl)cc4)n(C[C@H](O)C(F)(F)F)c3=O)n2)CC1 [Example 505, 2-[3-({3-(4-Chlorophenyl)-5-oxo-4-[(2S)-3,3,3-trifluoro-2-hydroxypropyl]-4,5-dihydro-1H-1,2,4-triazol-1-yl}methyl)-1H-1,2,4-triazol-1-yl]-N-(1-methylcyclopropyl)pyridine-3-carboxamide] | 55 | 1.05 | 52.6
10 | N#CC1(NC(=O)c2cccnc2-n2cnc(Cn3nc(-c4ccc(Cl)cc4)n(C[C@H](O)C(F)(F)F)c3=O)n2)CC1 [Example 506, 2-[3-({3-(4-Chlorophenyl)-5-oxo-4-[(2S)-3,3,3-trifluoro-2-hydroxypropyl]-4,5-dihydro-1H-1,2,4-triazol-1-yl}methyl)-1H-1,2,4-triazol-1-yl]-N-(1-cyanocyclopropyl)pyridine-3-carboxamide] | 905 | 14 | 64.6

Results, then the compound that gave them:

Row | IC50 [1] [nM] | IC50 [2] [nM] | ratio IC50 hV2/hV1a [2] | SMILES
11 | 32000 | 2650 | 12.1 | O=C1CN(c2nc(Cn3nc(-c4ccc(Cl)cc4)n(C[C@H](O)C(F)(F)F)c3=O)nn2-c2cccnc2C(=O)NCC(F)(F)F)CCN1 [Example 509, 3-[3-({3-(4-Chlorophenyl)-5-oxo-4-[(2S)-3,3,3-trifluoro-2-hydroxypropyl]-4,5-dihydro-1H-1,2,4-triazol-1-yl}methyl)-5-(3-oxopiperazin-1-yl)-1H-1,2,4-triazol-1-yl]-N-(2,2,2-trifluoroethyl)pyridine-2-carboxamide]
12 | 8900 | 9950 | 0.9 | O=C1CN(C(=O)c2nc(Cn3nc(-c4ccc(Cl)cc4)n(C[C@H](O)C(F)(F)F)c3=O)nn2-c2cnccc2C(=O)NCC(F)(F)F)CCN1 [Example 510, 3-{3-({3-(4-Chlorophenyl)-5-oxo-4-[(2S)-3,3,3-trifluoro-2-hydroxypropyl]-4,5-dihydro-1H-1,2,4-triazol-1-yl}methyl)-5-[(3-oxopiperazin-1-yl)carbonyl]-1H-1,2,4-triazol-1-yl}-N-(2,2,2-trifluoroethyl)pyridine-4-carboxamide]
13 | 1450 | 1650 | 0.9 | O=C1CN(C(=O)c2nc(Cn3nc(-c4ccc(Cl)cc4)n(C[C@H](O)C(F)(F)F)c3=O)nn2-c2cnccc2C(=O)NCCC(F)(F)F)CCN1 [Example 511, 3-{3-({3-(4-Chlorophenyl)-5-oxo-4-[(2S)-3,3,3-trifluoro-2-hydroxypropyl]-4,5-dihydro-1H-1,2,4-triazol-1-yl}methyl)-5-[(3-oxopiperazin-1-yl)carbonyl]-1H-1,2,4-triazol-1-yl}-N-(3,3,3-trifluoropropyl)pyridine-4-carboxamide]
14 | 1250 | 3600 | 0.3 | O=C1CN(C(=O)c2nc(Cn3nc(-c4ccc(Cl)cc4)n(C[C@H](O)C(F)(F)F)c3=O)nn2-c2ncccc2C(=O)NCCC(F)(F)F)CCN1 [Example 512, 2-{3-({3-(4-Chlorophenyl)-5-oxo-4-[(2S)-3,3,3-trifluoro-2-hydroxypropyl]-4,5-dihydro-1H-1,2,4-triazol-1-yl}methyl)-5-[(3-oxopiperazin-1-yl)carbonyl]-1H-1,2,4-triazol-1-yl}-N-(3,3,3-trifluoropropyl)pyridine-3-carboxamide]
15 | 5450 | 2400 | 2.3 | O=C1CN(C(=O)c2nc(Cn3nc(-c4ccc(Cl)cc4)n(C[C@H](O)C(F)(F)F)c3=O)nn2-c2ncccc2C(=O)NC2CC2)CCN1 [Example 513, 2-{3-({3-(4-Chlorophenyl)-5-oxo-4-[(2S)-3,3,3-trifluoro-2-hydroxypropyl]-4,5-dihydro-1H-1,2,4-triazol-1-yl}methyl)-5-[(3-oxopiperazin-1-yl)carbonyl]-1H-1,2,4-triazol-1-yl}-N-cyclopropylpyridine-3-carboxamide]
16 | 1250 | 340 | 3.7 | O=C1CN(C(=O)c2nc(Cn3nc(-c4ccc(Cl)cc4)n(C[C@H](O)C(F)(F)F)c3=O)nn2-c2cnccc2C(=O)NC2CC2)CCN1 [Example 514, 3-{3-({3-(4-Chlorophenyl)-5-oxo-4-[(2S)-3,3,3-trifluoro-2-hydroxypropyl]-4,5-dihydro-1H-1,2,4-triazol-1-yl}methyl)-5-[(3-oxopiperazin-1-yl)carbonyl]-1H-1,2,4-triazol-1-yl}-N-cyclopropylpyridine-4-carboxamide]
17 | 2250 | 2000 | 1.1 | CC1(NC(=O)c2ccncc2-n2nc(Cn3nc(-c4ccc(Cl)cc4)n(C[C@H](O)C(F)(F)F)c3=O)nc2C(=O)N2CCNC(=O)C2)CC1 [Example 515, 3-{3-({3-(4-Chlorophenyl)-5-oxo-4-[(2S)-3,3,3-trifluoro-2-hydroxypropyl]-4,5-dihydro-1H-1,2,4-triazol-1-yl}methyl)-5-[(3-oxopiperazin-1-yl)carbonyl]-1H-1,2,4-triazol-1-yl}-N-(1-methylcyclopropyl)pyridine-4-carboxamide]
18 | 480 | 955 | 0.5 | O=C(NCC(F)(F)F)c1ccncc1-n1nc(Cn2nc(-c3ccc(Cl)cc3)n(C[C@H](O)C(F)(F)F)c2=O)nc1C(=O)N1CCS(=O)(=O)CC1 [Example 518, 3-{3-({3-(4-Chlorophenyl)-5-oxo-4-[(2S)-3,3,3-trifluoro-2-hydroxypropyl]-4,5-dihydro-1H-1,2,4-triazol-1-yl}methyl)-5-[(1,1-dioxidothiomorpholin-4-yl)carbonyl]-1H-1,2,4-triazol-1-yl}-N-(2,2,2-trifluoroethyl)pyridine-4-carboxamide]
